The results in this text go back to PMC8041284, “Tunable Methacrylamides for Covalent Ligand Directed Release Chemistry” (Journal of the American Chemical Society, 2021).

The structures appear in SMILES notation.

This experiment concerns the target BTK (Homo sapiens, UniProt Q06187). Briefly: biochemical. Conditions: read-out: BTK inhibition (%), 0.75 uM BTK, […] probe 3l, 15 min preincubation.

Chain of BTK (Q06187 402-655 limits assumed): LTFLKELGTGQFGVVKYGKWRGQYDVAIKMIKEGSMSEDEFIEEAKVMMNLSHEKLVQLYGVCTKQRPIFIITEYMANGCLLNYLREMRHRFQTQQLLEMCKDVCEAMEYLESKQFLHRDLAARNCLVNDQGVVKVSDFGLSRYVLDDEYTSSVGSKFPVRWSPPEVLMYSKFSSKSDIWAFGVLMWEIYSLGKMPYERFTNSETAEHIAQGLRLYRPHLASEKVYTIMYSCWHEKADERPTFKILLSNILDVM

With `CN1C(=O)CCS(=O)(=O)C1c1ccc(Cl)cc1` (stereo not shown) [PCM-0065261], the inhibition at 10 µM is -14%. Take `OCCN(CCO)c1nc(N2CCCCC2)c2nc(N(CCO)CCO)nc(N3CCCCC3)c2n1` [PCM-0065264]: the inhibition at 10 µM worked out at 10.9%. On to `CNS(=O)(=O)CCc1ccc2[nH]cc(C3CCN(C)CC3)c2c1` [PCM-0065268], for which the inhibition at 10 µM is -14.8%. Turning to `Cc1cccc(-c2[nH]ncc2-c2ccc3ncccc3n2)n1` [PCM-0065277], the inhibition at 10 µM turned out to be 13.9%. On to `Cc1cnc(C(=O)NCCc2ccc(S(=O)(=O)NC(=O)NC3CCCCC3)cc2)cn1` [PCM-0065278], for which the inhibition at 10 µM turned out to be 13.2%. Regarding `CCOC(=O)Nc1ccc(NCc2ccc(F)cc2)nc1N` [PCM-0065288], the inhibition at 10 µM was -8.6%. With `NC(=O)CC[C@H](N)C(=O)O` [PCM-0065292], the inhibition at 10 µM is 17.9%. For `CC[N+](CC)(CC)CCOc1cccc(OCC[N+](CC)(CC)CC)c1OCC[N+](CC)(CC)CC` [PCM-0065294], the inhibition at 10 µM was determined as 9.3%. For `COc1cc2nc(N3CCN(C(=O)C4COc5ccccc5O4)CC3)nc(N)c2cc1OC` (stereo not shown) [PCM-0065300], the inhibition at 10 µM was -11.7%. Turning to `O=P(O)(O)C(Cl)(Cl)P(=O)(O)O` [PCM-0065307], the inhibition at 10 µM is -23.8%.

With `O=C(O)CCc1ccc(NCc2cccc(Oc3ccccc3)c2)cc1` [PCM-0065313], the inhibition at 10 µM is -41.4%. `Cc1cc(O)c2c(c1)C(=O)c1cc(O)cc(O)c1C2=O` [PCM-0065315]: the inhibition at 10 µM came out at 69.3%.

As to `CC(C)C(=O)Nc1ccc([N+](=O)[O-])c(C(F)(F)F)c1` [PCM-0065325], the inhibition at 10 µM was -3.4%. With `CNCCC(Oc1ccc(C(F)(F)F)cc1)c1ccccc1` (stereo not shown) [PCM-0065327] the figure was -7.8%. For the compound `COc1ccc2cccc(CCNC(C)=O)c2c1` [PCM-0065343], the inhibition at 10 µM was -16.3%.

With `COCCc1ccc(OCC(O)CNC(C)C)cc1` (stereo not shown) [PCM-0065348], the inhibition at 10 µM was 17%. `Cc1oncc1C(=O)Nc1ccc(C(F)(F)F)cc1` [PCM-0065349]: the inhibition at 10 µM was -5.5%. Take `CCN(CC)CCOC(=O)c1ccc(N)cc1` [PCM-0065363]: the inhibition at 10 µM was 3.9%.

`O=[N+]([O-])c1ccc2c(c1)S(=O)(=O)C=C2` [PCM-0065368]: the inhibition at 10 µM worked out at 40.9%. Turning to `CCN(CC)CCCC(C)Nc1c2ccc(Cl)cc2nc2ccc(OC)cc12` (stereo not shown) [PCM-0065371], the inhibition at 10 µM was -8.5%. As for `COC(=O)Nc1nc2ccc(C(=O)c3cccs3)cc2[nH]1` [PCM-0065378], the inhibition at 10 µM is -6.2%. With `Cc1[nH]c(=O)c(C#N)cc1-c1ccncc1` [PCM-0065386] the figure was -9.3%.

Turning to `Cc1cccc(C#Cc2ccccc2)n1` [PCM-0065388], the inhibition at 10 µM is -10.9%.

In the case of `O=C(c1ccc(OCCN2CCCCC2)cc1)c1c(-c2ccc(O)cc2)sc2cc(O)ccc12` [PCM-0065394], the inhibition at 10 µM turned out to be 85.5%. As to `CC(C)NCC(O)c1ccc(NS(C)(=O)=O)cc1` (stereo not shown) [PCM-0065402], the inhibition at 10 µM was -16.3%. `CC1CCN(CC[C@H]2CCCN2S(=O)(=O)c2cccc(O)c2)CC1` [PCM-0065410]: the inhibition at 10 µM turned out to be 7.8%. On to `CN1CCN2c3ccccc3Cc3ccccc3C2C1` (stereo not shown) [PCM-0065420], for which the inhibition at 10 µM came out at 12.4%. As for `NC(=O)c1ncn([C@@H]2O[C@H](CO)[C@@H](O)[C@H]2O)c1O` [PCM-0065422], the inhibition at 10 µM was determined as 0.9%. With `CC(=O)N1CCN(c2ccc(OC[C@@H]3CO[C@@](Cn4ccnc4)(c4ccc(Cl)cc4Cl)O3)cc2)CC1` [PCM-0065423] the figure was -29.8%; with `CC1=C(/C=C/C(C)=C/C=C/C(C)=C/C(=O)O)C(C)(C)CCC1` [PCM-0065434], -32.7%; with `Cc1ccc(N(CC2=NCCN2)c2cccc(O)c2)cc1` [PCM-0065435], -8.6%. The figure for `CCCN1C[C@H](CSC)C[C@@H]2c3cccc4[nH]cc(c34)C[C@H]21` [PCM-0065439] is -1.6%; for `Nc1nc2ccc(OC(F)(F)F)cc2s1` [PCM-0065440] it is -10.1%; for `CC1=C(CC(=O)O)c2cc(F)ccc2/C1=C\c1ccc([S+](C)[O-])cc1` (stereo not shown) [PCM-0065451] it is 8.3%. Turning to `COc1nc(C)nc(Cl)c1NC1=NCCN1` [PCM-0065456], the inhibition at 10 µM is 0.8%. With `O=C(c1ccccc1)c1ccc2n1CCC2C(=O)O` (stereo not shown) [PCM-0065461] the figure was -11.7%; with `CC(C(=O)O)c1ccc(CC2CCCC2=O)cc1` (stereo not shown) [PCM-0065463], 1.7%; with `CCn1cc(C(=O)O)c(=O)c2cc(F)c(N3CCNC(C)C3)c(F)c21` (stereo not shown) [PCM-0065465], -2.6%. With `COc1ccc(C2CNC(=O)C2)cc1OC1CCCC1` (stereo not shown) [PCM-0065474], the inhibition at 10 µM stood at 13.2%. Take `CCCCC1C(=O)N(c2ccccc2)N(c2ccccc2)C1=O` [PCM-0065475]: the inhibition at 10 µM was -17.2%.

Regarding `CN/C(=C\[N+](=O)[O-])NCCSCc1ccc(CN(C)C)o1` [PCM-0065476], the inhibition at 10 µM was -3.4%. For `NCCCNCCCCNCCCN` [PCM-0065483], the inhibition at 10 µM is -26.9%. On to `CCCCCCNC(=O)n1cc(F)c(=O)[nH]c1=O` [PCM-0065487], for which the inhibition at 10 µM was -7%. As for `O=C(/C=C/c1ccc(O)cc1)c1ccc(O)cc1O` [PCM-0065490], the inhibition at 10 µM came to 17.1%.

Turning to `CC(C(=O)O)c1cccc(C(=O)c2ccccc2)c1` (stereo not shown) [PCM-0065500], the inhibition at 10 µM was -17.9%. As for `Nc1nnc(-c2cccc(Cl)c2Cl)c(N)n1` [PCM-0065504], the inhibition at 10 µM amounted to 16.3%.

`c1ccc([C@H]2CN3CCSC3=N2)cc1` [PCM-0065508]: the inhibition at 10 µM is 17.9%.

As for `C[C@](N)(Cc1ccc(O)c(O)c1)C(=O)O` [PCM-0065509], the inhibition at 10 µM is -18.7%. As to `CC1=C(/C=C/C(C)=C/C=C/C(C)=C\C(=O)O)C(C)(C)CCC1` [PCM-0065511], the inhibition at 10 µM was -42.1%.

For `COc1cc2nc(N3CCN(C(=O)c4ccco4)CC3)nc(N)c2cc1OC` [PCM-0065512], the inhibition at 10 µM was -6%. With `CCCNC(C)C(=O)Nc1ccccc1C` (stereo not shown) [PCM-0065518], the inhibition at 10 µM was -16.3%. For `CNCC(O)c1ccc(O)cc1` (stereo not shown) [PCM-0065519], the inhibition at 10 µM is 7%. Take `CCN1CCC[C@H]1CNC(=O)c1cc(S(N)(=O)=O)ccc1OC` [PCM-0065527]: the inhibition at 10 µM is -6.2%. As to `CN[C@H](CC(=O)O)C(=O)O` [PCM-0065539], the inhibition at 10 µM was -10%. Consider `O=c1c(O)c(-c2ccc(O)cc2O)oc2cc(O)cc(O)c12` [PCM-0065541], for which the inhibition at 10 µM came out at 10.1%. Turning to `O=C1c2c(O)ccc(O)c2C(=O)c2c(NCCNCCO)ccc(NCCNCCO)c21` [PCM-0065547], the inhibition at 10 µM was found to be 51%. On to `NC(=O)c1cnccn1` [PCM-0065550], for which the inhibition at 10 µM turned out to be 5.4%. As for `O=c1c2ccccc2nc2n1CCc1c-2[nH]c2ccccc12` [PCM-0065551], the inhibition at 10 µM is 0.7%. With `O=C(CCc1ccc(O)cc1)c1c(O)cc(O)cc1O` [PCM-0065552] the figure was 15.2%. Take `CC(=O)Oc1cc(C(F)(F)F)ccc1C(=O)O` [PCM-0065558]: the inhibition at 10 µM is -8.6%.

Turning to `Cc1ccc(S(=O)(=O)/C=C/C#N)cc1` [PCM-0065564], the inhibition at 10 µM is -12.4%.

For `OCc1cc(C(O)CNCCCCCCOCCCCc2ccccc2)ccc1O` (stereo not shown) [PCM-0065569], the inhibition at 10 µM was -12.4%. Take `CN1CCC(=C2c3ccccc3CC(=O)c3sccc32)CC1` [PCM-0065580]: the inhibition at 10 µM is 10.3%. `COc1ccc2[nH]cc(CCNC(C)=O)c2c1` [PCM-0065583]: the inhibition at 10 µM is 11.7%. As for `CN(C)C(=O)C(CCN1CCC(O)(c2ccc(Cl)cc2)CC1)(c1ccccc1)c1ccccc1` [PCM-0065584], the inhibition at 10 µM worked out at 18.7%.

As for `Cc1c(OCC(F)(F)F)ccnc1C[S+]([O-])c1nc2ccccc2[nH]1` (stereo not shown) [PCM-0065586], the inhibition at 10 µM was -3.9%. Take `O=c1cc(N2CCOCC2)oc2c(-c3ccccc3)cccc12` [PCM-0065588]: the inhibition at 10 µM was -22.1%. With `CCC1(c2ccccc2)C(=O)NCNC1=O` [PCM-0065590] the figure was -17.1%.

Turning to `CCCN(CCC)CCc1cccc2c1CC(=O)N2` [PCM-0065591], the inhibition at 10 µM is -18.7%.

`CCCCCN(C)CCC(O)(P(=O)(O)O)P(=O)(O)O` [PCM-0065595]: the inhibition at 10 µM was -0.9%. For `O=C1Cc2cc(CCN3CCN(c4nsc5ccccc45)CC3)c(Cl)cc2N1` [PCM-0065598], the inhibition at 10 µM was found to be 52.1%. On to `CC(O)(CS(=O)(=O)c1ccc(F)cc1)C(=O)Nc1ccc(C#N)c(C(F)(F)F)c1` (stereo not shown) [PCM-0065600], for which the inhibition at 10 µM came to 11.7%.

On to `COc1cccc(-c2cc(=O)c3ccccc3o2)c1N` [PCM-0065604], for which the inhibition at 10 µM came out at 4.8%. On to `C[n+]1cc2c3c(ccc2c2ccc4cc5c(cc4c21)OCO5)OCO3` [PCM-0065605], for which the inhibition at 10 µM worked out at 75.7%. For the compound `CC(C)NCC(O)c1ccc(O)c(O)c1` (stereo not shown) [PCM-0065609], the inhibition at 10 µM came to 7%. In the case of `CC(=O)OCC(CCn1cnc2cnc(N)nc21)COC(C)=O` [PCM-0065613], the inhibition at 10 µM was -20.2%. Turning to `Cc1cccc(-c2[nH]c(C(C)(C)C)nc2-c2ccc3nccnc3c2)n1` [PCM-0065614], the inhibition at 10 µM was 25.5%. Consider `NC(=O)c1cn(Cc2c(F)cccc2F)nn1` [PCM-0065619], for which the inhibition at 10 µM is -17.9%. With `O=C(O)c1nn(Cc2ccc(Cl)cc2Cl)c2ccccc12` [PCM-0065622], the inhibition at 10 µM was 11%. For the compound `O=C(Nc1ccccc1)c1cc([N+](=O)[O-])ccc1Cl` [PCM-0065623], the inhibition at 10 µM came to 0.8%. `Oc1ccc(/C=C/c2cc(O)cc(O)c2)cc1` [PCM-0065629]: the inhibition at 10 µM came to 23.3%. Turning to `Clc1ccc2nsnc2c1NC1=NCCN1` [PCM-0065635], the inhibition at 10 µM turned out to be 14.8%. Regarding `C[C@H](N[C@@H](CCc1ccccc1)C(=O)O)C(=O)N1CCC[C@H]1C(=O)O` [PCM-0065638], the inhibition at 10 µM turned out to be 3.1%.

As for `Nc1nc2n[nH]nc2c(=O)[nH]1` [PCM-0085758], the inhibition at 10 µM is 4.7%. `Cc1ncc([N+](=O)[O-])n1CCO` [PCM-0085759]: the inhibition at 10 µM was -5.4%.
